# According to patent US9457033B2, “Steroid alkaloids and uses thereof as antimicrobial agents against electron transport-deficient microbes and as potentiators for antimicrobial agents against pathogenic bacteria” (priority 2011, dated 2016):
# Read-outs that look alike come from different tables or passages of the source.
# Assays:
# S. aureus Newman = experiment: MIC, microdilution in CAMHB 24 h; assay type: cell-based, Staphylococcus aureus; details: Newman; for MIC: Staphylococcus aureus
# S. aureus ATCC 29213 [1] = experiment: Checkerboard assay, aminoglycoside and tomatidine; assay type: cell-based, Staphylococcus aureus; details: for MIC: Staphylococcus aureus, ATCC29213, checkerboard
# Experimental: This checkerboard protocol (Eliopoulos and Moellering, 1996) was conducted by a microdilution method similar to that use for standard MICs determination. In 96 wells plates, antibiotics were loaded at a 4× concentration (where X is the maximal tested concentration) in well A1 and at a 2× concentration in the others wells of the column 1. Antibiotics were serially diluted 1:1 from the column 2 to column 10. […] Wells A12, B12, […] are positive untreated controls whereas wells […] are negative non-inoculated controls. […] The FIC index was calculated as follow (Eliopoulos and Moellering, 1996): FIC […]/MICB, where A and B are MICs of compounds A and B in combination and where MICA and MICB are the MICs of compound A alone and of compound B alone, respectively, and FICA and FICB are the FICs of compound A and of compound B, respectively.
# S. aureus CF07-L = experiment: MIC, microdilution in CAMHB 24 h; assay type: cell-based, Staphylococcus aureus; details: CF07-L; for MIC: Staphylococcus aureus, CF07L
# S. aureus CF9A-L = experiment: MIC, microdilution in CAMHB 24 h; assay type: cell-based, Staphylococcus aureus; details: CF9A-L; for MIC: Staphylococcus aureus
# S. aureus CF35A-L = experiment: MIC, microdilution in CAMHB 24 h; assay type: cell-based, Staphylococcus aureus; details: CF35A-L; for MIC: Staphylococcus aureus
# S. aureus 8325-4 = experiment: MIC, microdilution in CAMHB 24 h; assay type: cell-based, Staphylococcus aureus; details: 8325-4; for MIC: Staphylococcus aureus, 83254
# S. aureus CF1A-L = experiment: MIC, microdilution in CAMHB 24 h; assay type: cell-based, Staphylococcus aureus; details: CF1A-L; for MIC: Staphylococcus aureus, CF1AL
# S. aureus Sa220c = experiment: MIC, microdilution in CAMHB 24 h; assay type: cell-based, Staphylococcus aureus; details: Sa220c; for MIC: Staphylococcus aureus
# S. aureus CF6B-L = experiment: MIC, microdilution in CAMHB 24 h; assay type: cell-based, Staphylococcus aureus; details: CF6B-L; for MIC: Staphylococcus aureus, CF6BL
# S. aureus ATCC 29213 [2] = experiment: MIC, microdilution in CAMHB 24 h, with or without tomatidine/compound; assay type: cell-based, Staphylococcus aureus; details: for MIC: Staphylococcus aureus
# S. aureus Mu50 = experiment: MIC, microdilution in CAMHB 24 h; assay type: cell-based, Staphylococcus aureus; details: for MIC: Staphylococcus aureus
# S. aureus Sa228c = experiment: MIC, microdilution in CAMHB 24 h; assay type: cell-based, Staphylococcus aureus; details: for MIC: Staphylococcus aureus
# S. aureus CF8E-L = experiment: MIC, microdilution in CAMHB 24 h; assay type: cell-based, Staphylococcus aureus; details: CF8E-L; for MIC: Staphylococcus aureus, CF8EL
# S. aureus CF4B-L = experiment: MIC, microdilution in CAMHB 24 h; assay type: cell-based, Staphylococcus aureus; details: CF4B-L; for MIC: Staphylococcus aureus, CF4BL
# S. aureus SHY97-3906 = experiment: MIC, microdilution in CAMHB 24 h; assay type: cell-based, Staphylococcus aureus; details: for MIC: Staphylococcus aureus, SHY973906
# S. aureus ATCC BAA-41 = experiment: MIC, microdilution in CAMHB 24 h; assay type: cell-based, Staphylococcus aureus; details: for MIC: Staphylococcus aureus
# S. aureus CF7A-L = experiment: MIC, microdilution in CAMHB 24 h; assay type: cell-based, Staphylococcus aureus; details: CF7A-L; for MIC: Staphylococcus aureus
# S. aureus ATCC 29213 [3] = experiment: Time-kill experiments, aminoglycoside alone or with tomatidine (FIGS. 8-10)
# [4] = 8 μg/ml of tomatidine, read-out: MIC +TO
# [5] = absence of tomatidine, read-out: MIC −TO
# [6] = Human (CF lungs), read-out: MIC
# [7] = Human (CF lungs), MRSA, read-out: MIC
structure (smiles),measurement,setting,value
"NC[C@H]1O[C@H](O[C@H]2[C@H](O)[C@@H](O[C@H]3O[C@H](CO)[C@@H](O)[C@H](N)[C@H]3O)[C@H](N)C[C@@H]2N)[C@H](O)[C@@H](O)[C@@H]1O [Kanamycin, kanamycin]",Fold (−TO/+TO),S. aureus Newman; 8 μg/ml of tomatidine,8 fold
same,MIC,S. aureus Newman; [4],0.5 µg/mL
same,MIC,"S. aureus Newman; Human (Osteo), read-out: MIC",4 µg/mL
same,MIC,S. aureus Newman; [5],4 µg/mL
same,MIC,S. aureus ATCC 29213 [1]; tomatidine 0 μg/ml,2 to 4 µg/mL
same,MIC,S. aureus ATCC 29213 [1]; tomatidine 0.06 μg/ml,2 µg/mL
same,MIC,S. aureus ATCC 29213 [1]; tomatidine 0.12 μg/ml,0.5 to 1 µg/mL
same,MIC,S. aureus ATCC 29213 [1]; tomatidine 0.25 μg/ml,0.5 µg/mL
same,MIC,S. aureus ATCC 29213 [1]; tomatidine 0.5 μg/ml,0.5 µg/mL
same,MIC,S. aureus ATCC 29213 [1]; tomatidine 1 μg/ml,0.5 to 1 µg/mL
same,MIC,S. aureus ATCC 29213 [1]; tomatidine 2 μg/ml,0.25 to 0.5 µg/mL
same,MIC,S. aureus ATCC 29213 [1]; tomatidine 4 μg/ml,0.5 µg/mL
same,MIC,S. aureus ATCC 29213 [1]; tomatidine 8 μg/ml,0.5 µg/mL
same,FIC index,"S. aureus ATCC 29213 [1]; aminoglycoside with tomatidine, tomatidine MIC considered 32 μg/ml, values overestimated",≦0.193
same,Fold (−TO/+TO),S. aureus CF07-L; 8 μg/ml of tomatidine,4-8 fold
same,MIC,S. aureus CF07-L; [4],0.5 to 1 µg/mL
same,MIC,S. aureus CF07-L; [6],4 µg/mL
same,MIC,S. aureus CF07-L; [5],4 µg/mL
same,Fold (−TO/+TO),S. aureus CF9A-L; 8 μg/ml of tomatidine,1-2 fold
same,MIC,"S. aureus CF9A-L; CF9AL, ant(4′)-Ia, 8 μg/ml of tomatidine, read-out: MIC +TO",128 to 256 µg/mL
same,MIC,"S. aureus CF9A-L; CF9AL, ant(4′)-Ia, absence of tomatidine, read-out: MIC −TO",256 µg/mL
same,MIC,S. aureus CF9A-L; [7],256 µg/mL
same,Fold (−TO/+TO),S. aureus CF35A-L; 8 μg/ml of tomatidine,4 fold
same,MIC,"S. aureus CF35A-L; CF35AL, 8 μg/ml of tomatidine, read-out: MIC +TO",1 µg/mL
same,MIC,"S. aureus CF35A-L; CF35AL, absence of tomatidine, read-out: MIC −TO",4 µg/mL
same,MIC,S. aureus CF35A-L; [7],4 µg/mL
same,Fold (−TO/+TO),S. aureus 8325-4; 8 μg/ml of tomatidine,2-4 fold
same,MIC,S. aureus 8325-4; [4],0.5 to 4 µg/mL
same,MIC,"S. aureus 8325-4; Laboratory strain, read-out: MIC",2 to 8 µg/mL
same,MIC,S. aureus 8325-4; [5],2 to 8 µg/mL
same,Fold (−TO/+TO),S. aureus CF1A-L; 8 μg/ml of tomatidine,8 fold
same,MIC,S. aureus CF1A-L; [4],0.5 µg/mL
same,MIC,S. aureus CF1A-L; [6],4 µg/mL
same,MIC,S. aureus CF1A-L; [5],4 µg/mL
same,Fold (−TO/+TO),S. aureus Sa220c; 8 μg/ml of tomatidine,8 fold
same,MIC,S. aureus Sa220c; [4],0.5 µg/mL
same,MIC,"S. aureus Sa220c; Human (SSTI), MRSA, read-out: MIC",4 µg/mL
same,MIC,S. aureus Sa220c; [5],4 µg/mL
same,Fold (−TO/+TO),S. aureus CF6B-L; 8 μg/ml of tomatidine,4-8 fold
same,MIC,"S. aureus CF6B-L; aac(6′)-aph(2″), 8 μg/ml of tomatidine, read-out: MIC +TO",128 to 256 µg/mL
same,MIC,"S. aureus CF6B-L; aac(6′)-aph(2″), absence of tomatidine, read-out: MIC −TO",1020 µg/mL
same,MIC,S. aureus CF6B-L; [6],1020 µg/mL
same,Fold (−TO/+TO),"S. aureus ATCC 29213 [2]; ATCC 29123, 8 μg/ml of tomatidine",4-8 fold
same,Fold (−TO/+TO),"S. aureus ATCC 29213 [2]; ATCC 29213, tomatidine at 8 μg/ml",4-8 fold
same,MIC,"S. aureus ATCC 29213 [2]; ATCC 29123 / ATCC 29213, ATCC 29123, 8 μg/ml of tomatidine, read-out: MIC +TO",0.5 µg/mL
same,MIC,"S. aureus ATCC 29213 [2]; ATCC 29123 / ATCC 29213, ATCC 29123, absence of tomatidine, read-out: MIC −TO",2 to 4 µg/mL
same,MIC,"S. aureus ATCC 29213 [2]; ATCC29213, ATCC 29213, Human (SSTI), read-out: MIC",2 to 4 µg/mL
same,MIC,"S. aureus ATCC 29213 [2]; ATCC29213, ATCC 29213, absence of tomatidine, read-out: MIC −TO",2 to 4 µg/mL
same,MIC,"S. aureus ATCC 29213 [2]; ATCC29213, ATCC 29213, presence of tomatidine at 8 μg/ml, read-out: MIC +TO",0.5 µg/mL
same,Fold (−TO/+TO),"S. aureus Mu50; Mu50, 8 μg/ml of tomatidine",>2-4 fold
same,MIC,"S. aureus Mu50; Mu50, aac(6′)-aph(2″), ant(4′)-Ia, 8 μg/ml of tomatidine, read-out: MIC +TO",256 to 512 µg/mL
same,MIC,"S. aureus Mu50; Mu50, aac(6′)-aph(2″), ant(4′)-Ia, absence of tomatidine, read-out: MIC −TO",> 1020 µg/mL
same,MIC,"S. aureus Mu50; Mu50, Human (SSTI), MRSA, VISA, read-out: MIC",> 1020 µg/mL
same,Fold (−TO/+TO),"S. aureus Sa228c; Sa228c, 8 μg/ml of tomatidine",2-8 fold
same,MIC,S. aureus Sa228c; MRSA,512 to 1020 µg/mL
same,MIC,"S. aureus Sa228c; SA228C, read-out: MIC +TO",128 to 256 µg/mL
same,MIC,"S. aureus Sa228c; SA228C, read-out: MIC −TO",512 to 1020 µg/mL
same,Fold (−TO/+TO),S. aureus CF8E-L; 8 μg/ml of tomatidine,2-4 fold
same,MIC,S. aureus CF8E-L; [4],2 to 8 µg/mL
same,MIC,S. aureus CF8E-L; [6],16 µg/mL
same,MIC,S. aureus CF8E-L; [5],16 µg/mL
same,Fold (−TO/+TO),S. aureus CF4B-L; 8 μg/ml of tomatidine,8 fold
same,MIC,S. aureus CF4B-L; [4],0.5 µg/mL
same,MIC,S. aureus CF4B-L; [6],4 µg/mL
same,MIC,S. aureus CF4B-L; [5],4 µg/mL
same,Fold (−TO/+TO),"S. aureus SHY97-3906; SHY-3906, 8 μg/ml of tomatidine",4 fold
same,MIC,"S. aureus SHY97-3906; SHY97-3906, Cow (mastitis), read-out: MIC",2 µg/mL
same,MIC,"S. aureus SHY97-3906; SHY-3906, 8 μg/ml of tomatidine, read-out: MIC +TO",0.5 µg/mL
same,MIC,"S. aureus SHY97-3906; SHY-3906, absence of tomatidine, read-out: MIC −TO",2 µg/mL
same,Fold (−TO/+TO),"S. aureus ATCC BAA-41; ATCC BAA-41, 8 μg/ml of tomatidine",4-8 fold
same,MIC,"S. aureus ATCC BAA-41; ATCC BAA-41 / MRSA, ATCC BAA-41, Human (HA), MRSA, read-out: MIC",256 to 512 µg/mL
same,MIC,"S. aureus ATCC BAA-41; ATCCBAA41, ATCC BAA-41, ant(4′)-Ia, 8 μg/ml of tomatidine, read-out: MIC +TO",64 µg/mL
same,MIC,"S. aureus ATCC BAA-41; ATCCBAA41, ATCC BAA-41, ant(4′)-Ia, absence of tomatidine, read-out: MIC −TO",256 to 512 µg/mL
same,Fold (−TO/+TO),S. aureus CF7A-L; 8 μg/ml of tomatidine,2-4 fold
same,MIC,"S. aureus CF7A-L; CF7AL, ant(4′)-Ia, 8 μg/ml of tomatidine, read-out: MIC +TO",64 to 256 µg/mL
same,MIC,"S. aureus CF7A-L; CF7AL, ant(4′)-Ia, absence of tomatidine, read-out: MIC −TO",256 to 512 µg/mL
same,MIC,S. aureus CF7A-L; [7],256 to 512 µg/mL
"C[C@H]1CC[C@]2(NC1)O[C@H]1C[C@H]3[C@@H]4CC[C@H]5C[C@@H](O)CC[C@]5(C)[C@H]4CC[C@]3(C)[C@H]1[C@@H]2C [Tomatidine, tomatidine]",emergence of resistant CFU,"S. aureus ATCC 29213 [3]; combination of tomatidine (8 μg/ml) and gentamicin, FIG. 10",significantly reduced the emergence
same,number of CFU recovered,"S. aureus ATCC 29213 [3]; cultures exposed to gentamicin 0.5 to 4 μg/ml for 24 h, with 8 μg/ml tomatidine, FIG. 10",significantly decrease
same,regrowth of bacteria exposed to gentamicin or tobramycin,"S. aureus ATCC 29213 [3]; tomatidine at 8 μg/ml with aminoglycoside 1 μg/ml, 24 h, FIG. 9",markedly reduced the regrowth
